Experiments:
[1] = UV absorption spectrum in dichloromethane; type: physicochemical; conditions: for optical band gap: calculated by equation (1), 1240 nm/λonset
Protocol: UV absorption spectrum measurement was conducted using U-3900 spectrometer. Samples were dissolved in dichloromethane to a molar concentration of 1×10^−6M, the scanning scope was 800-200 nm, and the optical band gap of the compound was calculated according to the following equation, Egap^opt=1240 nm/λonset (1)

[2] = Cyclic voltammetry in dichloromethane; type: physicochemical; conditions: for LUMO energy level: calculated by equation (2), −(E1/2^red1+4.44); for half-wave potential E1/2^red1 / half-wave potential E1/2^red2: Bu4NPF6 0.1 M, 50 mV/s
Protocol: Cyclic voltammetry measurement was conducted by CHI610D electrochemical analyzer with computer control using a conventional tri-electrode system with platinum electrode as a working electrode, saturated calomel electrode (SCE) as a reference electrode, and platinum wire as a counter electrode. Samples were dissolved in freshly distilled dichloromethane to a molar concentration of 1×10^−3 M. Bu4NPF6 (0.1 M) was applied as a supporting electrolyte. The scan rate was 50 mV/s. Using saturated calomel as reference, taking the SCE energy level to be −4.44 eV below the vacuum level, the LUMO energies for the test material can be calculated by using the following equation for energy level: ELUMO=−(E1/2^red1+4.44) eV (2)

[3] = Solubility in common organic solvents at room temperature; type: physicochemical; conditions: for example chloroform, tetrahydrofuran
Source text: The 21 exemplary compounds (1˜21) described above for the five classes of sulfur containing heterocycle fused naphthalenetetracarboxylic acid diimide derivatives are soluble in regular organic solvents, such as chloroform, toluene, chlorobenzene, dichlorobenzene, and the like.

[4] = Cyclic voltammetry in dichloromethane; type: physicochemical; conditions: calculated by equation (3), −(Ered^onset+4.4)

optical band gap [1] | maximum UV absorption peak ([1]; dichloromethane, 1×10^−6M) | LUMO energy level [2] | half-wave potential E1/2^red1 ([2]; vs SCE, dichloromethane) | half-wave potential E1/2^red2 ([2]; vs SCE, dichloromethane) | melting point | SMILES | further results
2.0 eV | around 550 nm | −4.28 eV | −0.16 V | −0.64 V |  | CCCCCCCCCCC(CCCCCCCC)Cn1c(=O)c2c3sc(C#N)c(C#N)sc3c3c(=O)n(CC(CCCCCCCC)CCCCCCCCCC)c(=O)c4c5sc(C#N)c(C#N)sc5c(c1=O)c2c34 (stereo not shown) [Compound 15, N,N′-di(2-octyl-dodecyl)-[2,3-d:6,7-d′]-bi[1,4-dithiacyclohexadiene-2,3-dicarbonitrile]-naphthalene-1,4,5,8-tetracarboxylic acid diimide] | 
 |  |  |  |  | 369 to 371 °C | CCCCCCC(CCCC)Cn1c(=O)c2c3sc(=C(C#N)C#N)sc3c3c(=O)n(CC(CCCC)CCCCCC)c(=O)c4c5sc(=C(C#N)C#N)sc5c(c1=O)c2c34 (stereo not shown) [Compound 5, N,N′-di(2-butyloctyl)-[2,3-d:6,7-d′]-bi[2-(1,3-dithiacyclopenten-2-ylidene)-2-malononitrile]-naphthalene-1,4,5,8-tetracarboxylic acid diimide] | 
 |  |  |  |  | 265 °C | CCCCCCCCCCC(CCCCCCCC)Cn1c(=O)c2c3sc(=C(C#N)C#N)sc3c3c(=O)n(CC(CCCCCCCC)CCCCCCCCCC)c(=O)c4c5sc(=C(C#N)C#N)sc5c(c1=O)c2c34 (stereo not shown) [Compound 2, N,N′-di(2-octyldodecyl)-[2,3-d:6,7-d′]-bi[2-(1,3-dithiacyclopenten-2-ylidene)-2-malononitrile]-naphthalene-1,4,5,8-tetracarboxylic acid diimide] | 
 |  |  |  |  |  | CCCCCCCCn1c(=O)c2c3sc(=C(C#N)C#N)sc3c3c(=O)n(CCCCCCCC)c(=O)c4c5sc(=C(C#N)C#N)sc5c(c1=O)c2c34 [Compound 8, N,N′-di(n-octyl)-[2,3-d:6,7-d′]-bi[2-(1,3-dithiacyclopenten-2-ylidene)-2-malononitrile]-naphthalene-1,4,5,8-tetracarboxylic acid diimide] | solubility [3]: relatively low solubility
 |  |  |  |  | 330 to 332 °C | CCCCCCCCC(CCCCCC)CCn1c(=O)c2c3sc(=C(C#N)C#N)sc3c3c(=O)n(CCC(CCCCCC)CCCCCCCC)c(=O)c4c5sc(=C(C#N)C#N)sc5c(c1=O)c2c34 (stereo not shown) [Compound 7, N,N′-di(3-hexylundecyl)-[2,3-d:6,7-d′]-bi[2-(1,3-dithiacyclopenten-2-ylidene)-2-malononitrile]-naphthalene-1,4,5,8-tetracarboxylic acid diimide] | 
2.1 eV | around 573 nm | −4.35 eV | −0.09 V | −0.63 V | 240 °C | CCCCCCCCCCCCC(CCCCCCCCCC)Cn1c(=O)c2c3sc(=C(C#N)C#N)sc3c3c(=O)n(CC(CCCCCCCCCC)CCCCCCCCCCCC)c(=O)c4c5sc(=C(C#N)C#N)sc5c(c1=O)c2c34 (stereo not shown) [Compound 1, N,N′-di(2-decyltetradecyl)-[2,3-d:6,7-d′]-bi[2-(1,3-dithiacyclopenten-2-ylidene)-2-malononitrile]-naphthalene-1,4,5,8-tetracarboxylic acid diimide] | 
 |  |  |  |  | 317 to 319 °C | CCCCCCCCC(CCCCCC)Cn1c(=O)c2c3sc(=C(C#N)C#N)sc3c3c(=O)n(CC(CCCCCC)CCCCCCCC)c(=O)c4c5sc(=C(C#N)C#N)sc5c(c1=O)c2c34 (stereo not shown) [Compound 3, N,N′-di(2-hexyldecyl)-[2,3-d:6,7-d′]-bi[2-(1,3-dithiacyclopenten-2-ylidene)-2-malononitrile]-naphthalene-1,4,5,8-tetracarboxylic acid diimide] | 
1.8 eV | around 655 nm |  | -0.81 V |  |  | CCCCCCCCCCCCC(CCCCCCCCCC)Cn1c(=O)c2c3sc(=C(C#N)c4ccccc4)sc3c3c(=O)n(CC(CCCCCCCCCC)CCCCCCCCCCCC)c(=O)c4c5sc(=C(C#N)c6ccccc6)sc5c(c1=O)c2c34 (stereo not shown) [Compound 12, N,N′-di(2-decyltetradecyl)-[2,3-d:6,7-d′]-bi[2-(1,3-dithiacyclopenten-2-ylidene)-2-phenylacetonitrile]-naphthalene-1,4,5,8-tetracarboxylic acid diimide] | onset reduction potential Ered^onset ([2]; vs SCE, dichloromethane): −0.23 V; LUMO energy level [4]: −4.17 eV
 |  |  |  |  |  | CCCCC(CC)Cn1c(=O)c2c3sc(=C(C#N)C#N)sc3c3c(=O)n(CC(CC)CCCC)c(=O)c4c5sc(=C(C#N)C#N)sc5c(c1=O)c2c34 (stereo not shown) [Compound 6, N,N′-di(2-ethylhexyl)-[2,3-d:6,7-d′]-bi[2-(1,3-dithiacyclopenten-2-ylidene)-2-malononitrile]-naphthalene-1,4,5,8-tetracarboxylic acid diimide] | solubility [3]: relatively low solubility
 |  |  |  |  | 349 to 351 °C | CCCCCCC(CCCCCC)Cn1c(=O)c2c3sc(=C(C#N)C#N)sc3c3c(=O)n(CC(CCCCCC)CCCCCC)c(=O)c4c5sc(=C(C#N)C#N)sc5c(c1=O)c2c34 [Compound 4, N,N′-di(2-hexyloctyl)-[2,3-d:6,7-d′]-bi[2-(1,3-dithiacyclopenten-2-ylidene)-2-malononitrile]-naphthalene-1,4,5,8-tetracarboxylic acid diimide] | 
2.2 eV | 250˜318 nm | −4.63 eV | 0.19 V | −0.40 V |  | CCCCCCCCCCCCC(CCCCCCCCCC)CN1C(=O)c2c3sc(C#N)c(C#N)c3c3c4c(c5sc(C#N)c(C#N)c5c(c24)C1=O)C(=O)N(CC(CCCCCCCCCC)CCCCCCCCCCCC)C3=O (stereo not drawn) [Compound 18, N,N′-di(2-decyl-tetradecyl)-[2,3-d:6,7-d′]-bi[α,β-dicyanothiophene]-naphthalene-1,4,5,8-tetracarboxylic acid diimide] | end absorption peak ([1]; dichloromethane, 1×10^−6M): 545 nm
2.0 eV | around 581 nm | −4.23 eV | −0.21 V | −0.68 V |  | CCCCCCCCCCC(CCCCCCCC)Cn1c(=O)c2c3sc(=C(C#N)C(=O)OCC)sc3c3c(=O)n(CC(CCCCCCCC)CCCCCCCCCC)c(=O)c4c5sc(=C(C#N)C(=O)OCC)sc5c(c1=O)c2c34 (stereo not shown) [Compound 9, N,N′-di(2-octyldodecyl)-[2,3-d:6,7-d′]-bi[ethyl 2-(1,3-dithiacyclopenten-2-ylidene)-2-cyanoacetate]-naphthalene-1,4,5,8-tetracarboxylic acid diimide] | 

Reference: patent publication US8471021B2, “Sulfur containing heterocycle-fused naphthalene tetracarboxylic acid diimide derivatives, preparation method and use thereof” (Shanghai Institute Of Organic Chemistry, Chinese Academy Of …, priority 2009, dated 2013)
